Measurements: patent US12404283B2, “c-MYC mRNA translation modulators and uses thereof in the treatment of cancer” (Anima Biotech Inc., priority 2022, dated 2025)

The compounds below were run on c-Myc (assay: c-Myc immunofluorescence assay). Settings: A549 cells, 24 hours treatment, anti-c-Myc immunofluorescence.
Format: cell-based, human
Summary of the method: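 High-content imaging (20×) of PFA-fixed A549 cells immunostained for c-Myc with DAPI nuclei, after 24 h compound treatment at increasing concentrations. Per-cell c-Myc signal in identified cell regions was plotted against dose and fitted by logistic regression to give EC50.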
With `CNC(=O)c1ccc(-c2cn3c(n2)sc2cc(C(=O)NC4CC(N(C)C)C4)ccc23)cc1` (centres unmarked) [compound 269, N-(3-(dimethylamino)cyclobutyl)-2-(4-(methylcarbamoyl)phenyl) benzo[d]imidazo[2,1-b]thiazole-7-carboxamide] the “Myc Efficacy (−LogEC50)” value was “+ (+ >3 and <5)”.
With `CNC(=O)c1ccc(-c2cn3c(n2)sc2cc(C(=O)NC4CCCC(N)C4)ccc23)cc1` (centres unmarked) [compound 270, N-(3-aminocyclohexyl)-2-(4-(methylcarbamoyl)phenyl) benzo[d]imidazo[2,1-b]thiazole-7-carboxamide] the “Myc Efficacy (−LogEC50)” value was “+ (+ >3 and <5)”.
For `CNC(=O)c1ccc(-c2cn3c(n2)sc2cc(C(=O)NCCCN4CCCC4CO)ccc23)cc1` (centres unmarked) [compound 271, N-(3-(2-(hydroxymethyl)pyrrolidin-1-yl)propyl)-2-(4-(methylcarbamoyl)phenyl) benzo[d]imidazo[2,1-b]thiazole-7-carboxamide], the “Myc Efficacy (−LogEC50)” value was “+ (+ >3 and <5)”.
In the case of `CNC(=O)c1ccc(-c2cn3c(n2)sc2cc(C(=O)NCC4CC5(CNC5)C4)ccc23)cc1` [compound 272, N-((2-azaspiro[3.3]heptan-6-yl)methyl)-2-(4-(methylcarbamoyl)phenyl) benzo[d]imidazo[2,1-b]thiazole-7-carboxamide], the “Myc Efficacy (−LogEC50)” value was “− (− ≤3)”.
In the case of `CNC(=O)c1ccc(-c2cn3c(n2)sc2cc(C(=O)NC[C@H]4CC[C@H](O)CC4)ccc23)cc1` [compound 273, N-(((1r,4r)-4-hydroxycyclohexyl)methyl)-2-(4-(methylcarbamoyl)phenyl) benzo[d]imidazo[2,1-b]thiazole-7-carboxamide], the “Myc Efficacy (−LogEC50)” value was “− (− ≤3)”.
In the case of `CNC(=O)c1ccc(-c2cn3c(n2)sc2cc(C(=O)N[C@H](C)C4CC4)ccc23)cc1` [compound 274, (R)-N-(1-cyclopropylethyl)-2-(4-(methylcarbamoyl)phenyl) benzo[d]imidazo[2,1-b]thiazole-7-carboxamide], the “Myc Efficacy (−LogEC50)” value was “+ (+ >3 and <5)”.
`CNC(=O)c1ccc(-c2cn3c(n2)sc2cc(C(=O)NCc4ccccc4)ccc23)cc1` [compound 275, N-benzyl-2-(4-(methylcarbamoyl)phenyl) benzo[d]imidazo[2,1-b]thiazole-7-carboxamide] was tested, and the “Myc Efficacy (−LogEC50)” value was “− (− ≤3)”.
For `CCN(CC)CCCNC(=O)c1ccc2c(c1)sc1nc(-c3ccc(CN(C)C)cc3)cn12` [compound 276, N-(3-(diethylamino)propyl)-2-(4-((dimethylamino)methyl)phenyl)benzo[d]imidazo[2,1-b]thiazole-7-carboxamide], the “Myc Efficacy (−LogEC50)” value was “+++ (+++ ≥6)”.
`CCN(CC)CCCNC(=O)c1ccc2c(c1)sc1nc(-c3ccc(CO)cc3)cn12` [compound 277, N-(3-(diethylamino)propyl)-2-(4-(hydroxymethyl)phenyl) benzo[d]imidazo[2,1-b] thiazole-7-carboxamide] was tested, and the “Myc Efficacy (−LogEC50)” value was “++ (++ ≥5 and <6)”.
`CNC(=O)c1ccc(-c2cn3c(n2)sc2cc(C(=O)NCC4(C)CNC4)ccc23)cc1` [compound 278, N-((3-methylazetidin-3-yl)methyl)-2-(4-(methylcarbamoyl)phenyl) benzo[d]imidazo[2,1-b]thiazole-7-carboxamide] was tested, and the “Myc Efficacy (−LogEC50)” value was “− (− ≤3)”.
For `CNC(=O)c1ccc(-c2cn3c(n2)sc2cc(C(=O)NCC4CC5(CC5)CN4)ccc23)cc1` (centres unmarked) [compound 279, N-((5-azaspiro[2.4]heptan-6-yl)methyl)-2-(4-(methylcarbamoyl)phenyl) benzo[d]imidazo[2,1-b]thiazole-7-carboxamide], the “Myc Efficacy (−LogEC50)” value was “− (− ≤3)”.
In the case of `CNC(=O)c1ccc(-c2cn3c(n2)sc2cc(C(=O)NC4CC(C)C4)ccc23)cc1` (centres unmarked) [compound 280, 2-(4-(methylcarbamoyl)phenyl)-N-(3-methylcyclobutyl)benzo[d] imidazo[2,1-b]thiazole-7-carboxamide], the “Myc Efficacy (−LogEC50)” value was “++ (++ ≥5 and <6)”.
`CNC(=O)c1ccc(-c2cn3c(n2)sc2cc(C(=O)NCCCN4CCCCC4)ccc23)c(F)c1` [compound 281, 2-(2-fluoro-4-(methylcarbamoyl)phenyl)-N-(3-(piperidin-1-yl)propyl)benzo[d]imidazo [2,1-b]thiazole-7-carboxamide] was tested, and the “Myc Efficacy (−LogEC50)” value was “++ (++ ≥5 and <6)”.
In the case of `CCNC(=O)c1ccc(-c2cn3c(n2)sc2cc(C(=O)NCCCN(CC)CC)ccc23)cc1` [compound 282, N-(3-(diethylamino)propyl)-2-(4-(ethylcarbamoyl)phenyl) benzo[d]imidazo[2,1-b]thiazole-7-carboxamide], the “Myc Efficacy (−LogEC50)” value was “+ (+ >3 and <5)”.
`CCN(CC)CCCNC(=O)c1ccc2c(c1)sc1nc(-c3ccc(C(=O)NC(C)C)cc3)cn12` [compound 283, N-(3-(diethylamino)propyl)-2-(4-(isopropylcarbamoyl)phenyl) benzo[d]imidazo[2,1-b]thiazole-7-carboxamide] was tested, and the “Myc Efficacy (−LogEC50)” value was “+ (+ >3 and <5)”.
In the case of `CCN(CC)CCCNC(=O)c1ccc2c(c1)sc1nc(-c3ccc(C(=O)NCCOC)cc3)cn12` [compound 284, N-(3-(diethylamino)propyl)-2-(4-((2-methoxyethyl)carbamoyl)phenyl)benzo[d]imidazo[2,1-b]thiazole-7-carboxamide], the “Myc Efficacy (−LogEC50)” value was “+ (+ >3 and <5)”.
`CCN(CC)CCCNC(=O)c1ccc2c(c1)sc1nc(-c3ccc(C(=O)NCCO)cc3)cn12` [compound 285, N-(3-(diethylamino)propyl)-2-(4-((2-hydroxyethyl)carbamoyl)phenyl)benzo[d]imidazo[2,1-b]thiazole-7-carboxamide] was tested, and the “Myc Efficacy (−LogEC50)” value was “+ (+ >3 and <5)”.
With `CCN(CC)CCCNC(=O)c1ccc2c(c1)sc1nc(-c3ccc(C(=O)NC4CCN(C)C4)cc3)cn12` (centres unmarked) [compound 286, N-(3-(diethylamino)propyl)-2-(4-((1-methylpyrrolidin-3-yl)carbamoyl)phenyl)benzo [d]imidazo[2,1-b]thiazole-7-carboxamide] the “Myc Efficacy (−LogEC50)” value was “++ (++ ≥5 and <6)”.
For `CCN(CC)CCCNC(=O)c1ccc2c(c1)sc1nc(-c3ccc(C(=O)NC4CCNCC4)cc3)cn12` [compound 287, N-(3-(diethylamino)propyl)-2-(4-(piperidin-4-ylcarbamoyl)phenyl)benzo [d]imidazo[2,1-b]thiazole-7-carboxamide], the “Myc Efficacy (−LogEC50)” value was “+ (+ >3 and <5)”.
With `CCN(CC)CCCNC(=O)c1ccc2c(c1)sc1nc(-c3ccc(CNC)cc3)cn12` [compound 288, N-(3-(diethylamino)propyl)-2-(4-((methylamino)methyl)phenyl) benzo[d]imidazo[2,1-b]thiazole-7-carboxamide] the “Myc Efficacy (−LogEC50)” value was “+++ (+++ ≥6)”.
`CCN(CC)CCCNC(=O)c1ccc2c(c1)sc1nc(-c3ccc(CN4CCCC4)cc3)cn12` [compound 289, N-(3-(diethylamino)propyl)-2-(4-(pyrrolidin-1-ylmethyl)phenyl)benzo[d] imidazo[2,1-b]thiazole-7-carboxamide] was tested, and the “Myc Efficacy (−LogEC50)” value was “+++ (+++ ≥6)”.
`NCc1ccc(-c2cn3c(n2)sc2cc(C(=O)NCCCN4CCCCC4)ccc23)cc1` [compound 290, 2-(4-(aminomethyl)phenyl)-N-(3-(piperidin-1-yl)propyl)benzo[d]imidazo [2,1-b]thiazole-7-carboxamide] was tested, and the “Myc Efficacy (−LogEC50)” value was “+++ (+++ ≥6)”.
With `CCN(CC)CCCNC(=O)c1ccc2c(c1)sc1nc(-c3ccc(C(=O)NC)c(F)c3)cn12` [compound 291] the “Myc Efficacy (−LogEC50)” value was “+ (+ >3 and <5)”.
For `CCN(CC)CCCNC(=O)c1ccc2c(c1)sc1nc(-c3ccc(CNCCOC)cc3)cn12` [compound 292, N-(3-(diethylamino)propyl)-2-(4-(((2-methoxyethyl)amino)methyl)phenyl)benzo[d]imidazo[2,1-b]thiazole-7-carboxamide], the “Myc Efficacy (−LogEC50)” value was “+++ (+++ ≥6)”.
In the case of `CCN(CC)CCCNC(=O)c1ccc2c(c1)sc1nc(-c3ccc([C@@H](NC)C(F)(F)F)cc3)cn12` [compound 293, (R)-N-(3-(diethylamino)propyl)-2-(4-(2,2,2-trifluoro-1-(methylamino)ethyl)phenyl) benzo[d]imidazo[2,1-b]thiazole-7-carboxamide], the “Myc Efficacy (−LogEC50)” value was “++ (++ ≥5 and <6)”.
With `CCN(CC)CCCNC(=O)c1ccc2c(c1)sc1nc(-c3ccc([C@H](NC)C(F)(F)F)cc3)cn12` [compound 294, (S)-N-(3-(diethylamino)propyl)-2-(4-(2,2,2-trifluoro-1-(methylamino)ethyl)phenyl) benzo[d]imidazo[2,1-b]thiazole-7-carboxamide] the “Myc Efficacy (−LogEC50)” value was “++ (++ ≥5 and <6)”.
With `CCN(CC)CCCNC(=O)c1ccc2c(c1)sc1nc(-c3ccc(C(=O)NCCNC)cc3)cn12` [compound 295, N-(3-(diethylamino)propyl)-2-(4-((2-(methylamino)ethyl)carbamoyl)phenyl)benzo[d] imidazo[2,1-b]thiazole-7-carboxamide] the “Myc Efficacy (−LogEC50)” value was “++ (++ ≥5 and <6)”.
With `CCN(CC)CCCNC(=O)c1ccc2c(c1)sc1nc(-c3ccc(C(=O)NC4CCNC4)cc3)cn12` (centres unmarked) [compound 296, N-(3-(diethylamino)propyl)-2-(4-(pyrrolidin-3-ylcarbamoyl)phenyl)benzo[d] imidazo[2,1-b]thiazole-7-carboxamide] the “Myc Efficacy (−LogEC50)” value was “+ (+ >3 and <5)”.
`CCN(CC)CCCNC(=O)c1ccc2c(c1)sc1nc(-c3ccc(C(=O)NCCN)cc3)cn12` [compound 297, 2-(4-((2-aminoethyl)carbamoyl)phenyl)-N-(3-(diethylamino)propyl)benzo [d]imidazo[2,1-b]thiazole-7-carboxamide] was tested, and the “Myc Efficacy (−LogEC50)” value was “+ (+ >3 and <5)”.
In the case of `CCN(CC)CCCNC(=O)c1ccc2c(c1)sc1nc(-c3ccc(CN)cc3F)cn12` [compound 298, 2-(4-(aminomethyl)-2-fluorophenyl)-N-(3-(diethylamino)propyl)benzo [d]imidazo[2,1-b]thiazole-7-carboxamide], the “Myc Efficacy (−LogEC50)” value was “+++ (+++ ≥6)”.
`CCN(CC)CCCNC(=O)c1ccc2c(c1)sc1nc(-c3cccc(CN)c3)cn12` [compound 299, 2-(3-(aminomethyl)phenyl)-N-(3-(diethylamino)propyl) benzo[d]imidazo[2,1-b] thiazole-7-carboxamide] was tested, and the “Myc Efficacy (−LogEC50)” value was “++ (++ ≥5 and <6)”.
For `CCN(CC)CCCNC(=O)c1ccc2c(c1)sc1nc(-c3ccc(CNC4CC4)cc3)cn12` [compound 300, 2-(4-((cyclopropylamino)methyl)phenyl)-N-(3-(diethylamino)propyl)benzo [d]imidazo[2,1-b]thiazole-7-carboxamide], the “Myc Efficacy (−LogEC50)” value was “+++ (+++ ≥6)”.
